Measured values reported in patent publication US20260055142A1, “PHARMACEUTICAL USE OF POLYPEPTIDE IN PREPARATION OF DRUGS FOR TREATING AND/OR PREVENTING DIABETES AND OBESITY AND RELATED DISEASES THEREOF” (GUANGDONG RAYNOVENT BIOTECH CO., LTD., priority 2022, published 2026).

Legend:
[1] = molecular target: T1, GLP-1R (Homo sapiens, UniProt P43220); test: In vitro GLP-1R agonistic activity test (cAMP kit); format: cell-based; settings: HEK293 host cell; without 1% HSA
T1 construct: host or cells: HEK293
Experimental: The cell lines were constructed by Wuxi […] (Shanghai) Co., Ltd. See details in Table 1 below. [table] The test compounds were diluted at a 4-fold dilution factor in 10 points, starting from an initial concentration of 30 μM. […]

[2] = molecular target: T2, GIPR (Homo sapiens, UniProt P48546); test: In vitro GIPR agonistic activity test (cAMP kit); format: cell-based; settings: CHO host cell; without 1% HSA
T2 construct: host or cells: CHO
T2 sequence (P48546 22-466): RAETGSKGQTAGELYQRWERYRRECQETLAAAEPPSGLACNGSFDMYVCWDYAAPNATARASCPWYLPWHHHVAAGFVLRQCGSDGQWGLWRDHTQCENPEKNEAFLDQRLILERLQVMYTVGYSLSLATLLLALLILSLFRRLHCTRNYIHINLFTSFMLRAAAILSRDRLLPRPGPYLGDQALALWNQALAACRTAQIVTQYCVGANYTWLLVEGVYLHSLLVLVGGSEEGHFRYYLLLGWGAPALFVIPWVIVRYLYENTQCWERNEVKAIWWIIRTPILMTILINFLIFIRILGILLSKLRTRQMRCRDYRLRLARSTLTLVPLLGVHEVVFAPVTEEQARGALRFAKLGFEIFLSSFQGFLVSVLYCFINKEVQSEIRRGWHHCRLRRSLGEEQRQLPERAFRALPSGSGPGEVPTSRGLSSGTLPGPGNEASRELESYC
Experimental: The cell lines were constructed by Wuxi […] (Shanghai) Co., Ltd. See details in Table 1 below. […] The test compounds were diluted at a 4-fold dilution factor in 10 points, starting from an initial concentration of 30 μM.

[3] = test system: Db/db (Lepr leptin receptor deficient) mice; test: In vivo efficacy test in mouse model of diabetes; settings: for Change rate of glycosylated hemoglobin: “−” indicates decrease
Text: To study the efficacy of the series of polypeptides of the present application in animal model of diabetes, and to compare them with the marketed counterpart Tirzepatide as reported in the literature (MOLECULAR METABOLISM, 18 (2018), P3-14). The glucose-lowering effect of Tirzepatide is much better than that of Semaglutide, and thus Semaglutide was not included in this experiment for comparison. Db/db (Lepr leptin receptor deficient) mice have typical clinical symptoms of diabetes such as extreme obesity, hyperphagia, thirst, and polyuria, and they are ideal animal model of type II diabetes. […] The test animals were divided into groups. An appropriate amount of the test samples were added into 20 mM sodium citrate buffer following the experimental protocol, and the mixture was vortexed at room temperature to obtain clear solutions of varying concentrations. The obtained solutions were frozen for further use. During the experiment, animals in the normal control group, the model group and the dosing group were administered by means of subcutaneous injection on the outer thighs. The dosing regimen was once a day (Qd), for a total period of 4 weeks. Details were as follows: [table] […] The fasting blood glucose level and the change rate of glycosylated hemoglobin level in the test mice were dynamically monitored during the experiment.

[4] = test system: mouse model of obesity; test: In vivo efficacy test in mouse model of obesity; settings: high-fat diet obese mice, SC Q3d for 22 days; 10 nmol/kg (Semaglutide 30 nmol/kg)
Text: To study the weight-lowering effect of the series of polypeptides of the present application in animal model of obesity, and to compare them with the marketed counterparts, Tirzepatide and Semaglutide. Mouse model of obesity was obtained by induction with high-fat diet following the reference literature (MOLECULAR METABOLISM, 18 (2018), P3-14). The specific experimental procedure was as follows: the experimental mice were fed with high-fat diet (Research Diet D12492) for 13 weeks. […] These findings indicated the successful establishment of animal models. The test animals were divided into groups. An appropriate amount of the test samples were added into 20 mM sodium citrate buffer following the experimental protocol, and the mixture was vortexed at room temperature to obtain clear solutions of varying concentrations. The obtained solutions were frozen for further use. During the experiment, animals in the model group and the dosing group were administered by means of subcutaneous injection on the outer thighs. The dosing regimen was once every 3 days […]), for a total period of 22 days. Details were as follows. [table] […] After completing the entire dosing test cycle, the test mice were weighed, and the results were shown below.

T1 sequence (P43220 24-463, species assumed): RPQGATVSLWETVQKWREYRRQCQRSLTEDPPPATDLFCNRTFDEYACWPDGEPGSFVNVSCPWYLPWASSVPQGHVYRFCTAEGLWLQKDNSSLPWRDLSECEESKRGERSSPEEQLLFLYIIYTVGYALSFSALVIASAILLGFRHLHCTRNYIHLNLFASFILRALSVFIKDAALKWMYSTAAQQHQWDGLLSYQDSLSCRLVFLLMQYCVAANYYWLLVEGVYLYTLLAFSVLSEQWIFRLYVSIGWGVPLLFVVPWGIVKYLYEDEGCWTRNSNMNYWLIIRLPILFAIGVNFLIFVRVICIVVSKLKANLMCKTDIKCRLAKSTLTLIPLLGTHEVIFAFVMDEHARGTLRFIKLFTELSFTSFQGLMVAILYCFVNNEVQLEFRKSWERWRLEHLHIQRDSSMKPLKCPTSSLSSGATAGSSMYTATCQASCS

EC50 [1] [nM]	EC50 [2] [nM]	Compound	Fasting blood glucose ([3]; Day 0, 5 nmol/kg SC Qd) [mmol/L]	Fasting blood glucose ([3]; Day 7, 5 nmol/kg SC Qd) [mmol/L]	Fasting blood glucose ([3]; Day 14, 5 nmol/kg SC Qd) [mmol/L]	Change rate of glycosylated hemoglobin ([3]; Day 14, 5 nmol/kg SC Qd) [%]	Fasting blood glucose ([3]; Day 21, 5 nmol/kg SC Qd) [mmol/L]	Change rate of glycosylated hemoglobin ([3]; Day 21, 5 nmol/kg SC Qd) [%]	Change rate of glycosylated hemoglobin ([3]; Day 29, 5 nmol/kg SC Qd) [%]	Weight change rate [4] [%]
0.026	0.4	CC[C@H](C)[C@H](NC(=O)[C@H](CC(C)C)NC(=O)[C@H](Cc1c[nH]c2ccccc12)NC(=O)[C@H](C)NC(=O)[C@@H](NC(=O)[C@H](Cc1ccccc1)NC(=O)[C@H](C)NC(=O)[C@@H]1CCCCNC(=O)CN(C(=O)COCCOCCNC(=O)COCCOCCNC(=O)CC[C@H](NC(=O)CCCCCCCCCCCCCCCCCCC(=O)O)C(=O)O)CC(=O)NCCCC[C@H](NC(=O)[C@H](CCCCN)NC(=O)[C@H](CC(=O)O)NC(=O)[C@H](CC(C)C)NC(=O)C(C)(C)NC(=O)[C@@H](NC(=O)[C@H](CO)NC(=O)[C@H](Cc2ccc(O)cc2)NC(=O)[C@H](CC(=O)O)NC(=O)[C@H](CO)NC(=O)[C@@H](NC(=O)[C@H](Cc2ccccc2)NC(=O)[C@@H](NC(=O)CNC(=O)[C@H](CCC(=O)O)NC(=O)C(C)(C)NC(=O)[C@@H](N)Cc2ccc(O)cc2)[C@@H](C)O)[C@@H](C)O)[C@@H](C)CC)C(=O)N[C@@H](C)C(=O)N[C@@H](CCC(N)=O)C(=O)N1)C(C)C)C(=O)N[C@@H](C)C(=O)NCC(=O)NCC(=O)N1CCC[C@H]1C(=O)N[C@@H](CO)C(=O)N[C@@H](CO)C(=O)NCC(=O)N[C@@H](C)C(=O)N1CCC[C@H]1C(=O)N1CCC[C@H]1C(=O)N1CCC[C@H]1C(=O)N[C@@H](CO)C(N)=O [WX-007]	–	–	–	–	–	–	–	–
–	–	Tirzepatide	26.7 ± 1.4	11.6 ± 1.4	12.6 ± 1.6	−15.9 ± 5.4	14.0 ± 1.4	−14.3 ± 4.9	−10.2 ± 5.7	−10.20
